# Source: US11278534B2, “Enantiomers of substituted thiazoles as antiviral compounds” (Innovative Molecules GmbH, priority 2017, dated 2022)
# pIC50: −log10 of the molar value. Where two headings read alike, the source gives them in different places.
# Legend:
# HSV-1 = assay: activity selectivity assay, HSV-1 infected Vero cells; format: cell-based
# Procedure: (§1) HSV (HSV-1 Walki, HSV-1F, HSV-2 MS, HSV clinical isolates and HSV resistant strains) was cultivated on Vero cells (ATCC CCL-81) under the following conditions: The cells were grown in M199 medium (5% foetal calf serum, 2 mM glutamine, 100 IU/mL penicillin, 100 μg/mL streptomycin) in cell culture bottles at 37° C. and 5% CO2. The cells were splitted twice per week (1:4). For the infection, the medium was removed, the cells were washed with Hank's solution, detached using 0.05% trypsin, 0.02% EDTA and incubacted at a density of 4×10^5 cells/mL under the above-mentioned conditions for 24 h. The medium was removed and the virus solution was added at an m.o.i of <0.05 in a volume of 2 mL per 175 cm^2 surface. The infected cells were incubated at 37° C., 5% CO2 for 1 h and then the medium was made up to a volume of 50 mL per 175 cm^2 bottle. […] The virus was released by freezing (−80° C.) and thwawing (37° C.) the infected cultures twice. Cell debris was removed by centrifugation (300 g, 10 min, 4° C.) and the supernatant was frozen in aliquots at −80° C.
# (§2) The virus titre was determined using a plaque assay. To this end, Vero cells were seeded in 24-well plates at a density of 4×10^5 cells per well and, after 24 h of incubation (37° C., 5% CO2) infected with 100 μL of inoculum (dilutions (10^−2 to 10^−12) of the virus stock). 1 h after the infection, the medium was removed and the cells were covered with 1 mL of overlay medium (0.5% methylcellulose, 0.22% sodium bicarbonate, 2 mM glutamine, 100 IU/mL penicillin, 100 μg/mL streptomycin, 5% foetal calf serum in MEM-Eagle medium with Earl's salt) and incubated for 3 d in a cell incubator at (37° C., 5% CO2). The cells were then fixated using 4% formaline for 1 h, washed with water, stained with Giemsa for 30 min and then washed and dried. Using a plaque viewer, the virus titre was determined.
# (§3) The antiviral action was determined using a patented (DE10235967 and WO2004/015416) and subsequently published activity selectivity assay (G. Kleymann et al. J. Biomol. Screen. 2004; 9, 578) in 96- or 384-well mictrotitre plates using various cell lines of neuronal, lymphoid and epithelial origin, such as, for example, Vero (african green monkey kidney cells), MEF (murine embryonal fibroblasts), HELF (human embryonal fibroblasts), NT2 (human neuronal cell line) or Jurkat (human lymphoid T-cell line). The relevant experimental details of the above mentioned patent and publication to evaluate the antiviral activity of the invention (disclosed compounds) are described below.
# (§4) The effect of the substances on the spreading of the cytopathogenic effect was determined in comparision to the reference compound acyclovir-sodium (Zovirax™), a clinically approved anti-herpes chemotherapeutic.
# (§5) The compounds (50 mM stock solution dissolved in DMSO) are examined on microtitre plates (for example 96-well flat bottom cell culture plates) at a final concentration of 250 to 0.5 μM or, in case of potent antiviral compounds, 250 to 0.5 nM in 2 to 4 replications (4 to 2 substances per plate). Also examined are toxic and cytostatic effects or precipitation of the compounds. […]
# HSV-1 ACV resistant = assay: activity selectivity assay, HSV-1 ACV resistant; format: cell-based
# Procedure: as §1, §2, §3, §4, §5
# HSV-2 = assay: activity selectivity assay, HSV-2 infected Vero cells; format: cell-based
# Procedure: as §1, §2, §3, §4, §5
# Human Carboanhydrase II = Human Carboanhydrase II (Homo sapiens, UniProt P00918); assay: carbonic anhydrase activity assay (pH indicator method); format: biochemical; details: for carbonic anhydrase inhibition: result in words
# in vivo = assay: in vivo; parameters: species or system mice strain C57BL/6J; details: male, C57BL/6J, mouse, po, 10 mg/kg
# Procedure: Pharmcokinetic parameters were determined for Example 7, 7(−), 7(+) and 7c in male mice strain C57BL/6J at an intraveneous (i.v.) dose of 5 mg/kg (5% DMSO in heterologous plasma, 2.5 mL/kg) and an oral dose (p.o) of 10 mg/kg (DMSO/0.5% HPMC (5:95), 5 mL/kg).
SMILES,pIC50 (HSV-1; Human alphaherpesvirus 1),pIC50 (HSV-1 ACV resistant; Human alphaherpesvirus 1),pIC50 (HSV-2; Human alphaherpesvirus 2),pIC50 (HSV-1),pIC50 (HSV-1 ACV resistant; HSV-1 ACV resistant),pIC50 (HSV-2),IC50 (Human Carboanhydrase II) [µM],carbonic anhydrase inhibition (Human Carboanhydrase II),AUC (in vivo) [ng·h/mL],Cmax (in vivo) [ng/mL]
"CN(C(=O)Cc1ccc(-c2cc(F)ccc2F)cc1)c1nc(CO)c([S@@](C)(=N)=O)s1 (single isomer, unassigned) [Example 10a, 2-(2′,5′-Difluoro-[1,1′-biphenyl]-4-yl)-N-(4-(hydroxymethyl)-5-(S-methylsulfonimidoyl)thiazol-2-yl)-N-methylacetamide]",6.60 to 7.30,6.60 to 7.30,5.30 to 6.00,,,,,,,
"Cc1nc(N(C)C(=O)Cc2ccc(-c3cc(F)ccc3F)cc2)sc1[S@](=N)(=O)C1CC1 (single isomer, unassigned) [Example 7a(+), (+)-N-(5-(Cyclopropanesulfonimidoyl)-4-methylthiazol-2-yl)-2-(2′,5′-difluoro-[1,1′-biphenyl]-4-yl)-N-methylacetamide]",6.12 to 6.60,6.12 to 6.60,5.70 to 6.30,,,,,,,
"Cc1nc(N(C)C(=O)Cc2ccc(-c3ccccn3)cc2)sc1[S@@](=N)(=O)C1CC1 (single isomer, unassigned) [Example 7b(−), (−)-N-(5-(Cyclopropanesulfonimidoyl)-4-methylthiazol-2-yl)-N-methyl-2-(4-(pyridin-2-yl)phenyl)acetamide]",6.60 to 7.12,6.60 to 7.12,6.12 to 6.70,,,,,,,
"Nc1nc2c(ncn2COCCO)c(=O)[nH]1 [Acyclovir, reference compound]",,,,5.52 to 6.30,< 4.60,5.52 to 6.30,,,,
"CC(=O)N=[S@](C)(=O)c1sc(N(C)C(=O)Cc2ccc(-c3cc(F)ccc3F)cc2)nc1C [Example 8, (R)-N-(5-(N-Acetyl-S-methylsulfonimidoyl)-4-methylthiazol-2-yl)-2-(2′,5′-difluoro-[1,1′-biphenyl]-4-yl)-N-methylacetamide]",4.30 to 5.00,4.30 to 5.00,3.60 to 4.30,,,,,,,
"CN(C(=O)Cc1ccc(-c2cc(F)ccc2F)cc1)c1nc(CO)c([S@](C)(=N)=O)s1 (single isomer, unassigned) [Example 10b, 2-(2′,5′-Difluoro-[1,1′-biphenyl]-4-yl)-N-(4-(hydroxymethyl)-5-(S-methylsulfonimidoyl)thiazol-2-yl)-N-methylacetamide]",5.30 to 6.00,5.30 to 6.00,4.60 to 5.30,,,,,,,
"Cc1nc(N(C)C(=O)Cc2ccc(-c3ccccn3)cc2)sc1S(=N)(=O)C1CC1 (racemic) [Example 7b, N-[5-(Cyclopropylsulfonimidoyl)-4-methyl-thiazol-2-yl]-N-methyl-2-[4-(2-pyridyl)phenyl]acetamide]",6.40 to 7.00,6.40 to 7.00,6.00 to 6.60,,,,> 10,no or significantly reduced carbonic anhydrase inhibition,,
"Cc1nc(N(C)C(=O)Cc2ccc(-c3cc(F)ccc3F)cc2)sc1[S@](C)(=N)=O [Example 7(+), (+)-(R)-2-(2′,5′-Difluoro-[1,1′-biphenyl]-4-yl)-N-methyl-N-(4-methyl-5-(S-methylsulfonimidoyl)thiazol-2-yl)acetamide]",6.70 to 7.52,6.70 to 7.52,6.70 to 7.52,,,,> 10,no or significantly reduced carbonic anhydrase inhibition,,
"Cc1nc(N(C)C(=O)Cc2ccc(-c3ccccn3)cc2)sc1[S@@](C)(=N)=O (single isomer, unassigned) [Example 7c(−), (−)-N-Methyl-N-(4-methyl-5-(S-methylsulfonimidoyl)thiazol-2-yl)-2-(4-(pyridin-2-yl)phenyl)acetamide]",6.52 to 7.12,6.52 to 7.12,6.12 to 7.00,,,,> 10,no or significantly reduced carbonic anhydrase inhibition,38000,6650
"Cc1nc(N(C)C(=O)Cc2ccc(-c3ccccn3)cc2)sc1[S@](C)(=N)=O (racemic) [Example 7c, N-Methyl-N-[4-methyl-5-(methylsulfonimidoyl)thiazol-2-yl]-2-[4-(2-pyridyl)phenyl]acetamide]",6.22 to 6.82,6.22 to 6.82,5.82 to 6.70,,,,> 10,,22500,4290
"Cc1nc(N(C)C(=O)Cc2ccc(-c3ccccn3)cc2)sc1[S@](=N)(=O)C1CC1 (single isomer, unassigned) [Example 7b(+), (+)-N-(5-(Cyclopropanesulfonimidoyl)-4-methylthiazol-2-yl)-N-methyl-2-(4-(pyridin-2-yl)phenyl)acetamide]",5.82 to 6.30,5.82 to 6.30,5.10 to 5.70,,,,,,,
"Cc1nc(N(C)C(=O)Cc2ccc(-c3ccccn3)cc2)sc1[S@](C)(=N)=O (stereo in doubt) [Example 7c, N-Methyl-N-[4-methyl-5-(methylsulfonimidoyl)thiazol-2-yl]-2-[4-(2-pyridyl)phenyl]acetamide]",,,,,,,,no or significantly reduced carbonic anhydrase inhibition,,
"Cc1nc(N(C)C(=O)Cc2ccc(-c3cc(F)ccc3F)cc2)sc1[S@@](=N)(=O)C1CC1 (single isomer, unassigned) [Example 7a(−), (−)-N-(5-(Cyclopropanesulfonimidoyl)-4-methylthiazol-2-yl)-2-(2′,5′-difluoro-[1,1′-biphenyl]-4-yl)-N-methylacetamide]",7.30 to 7.70,7.30 to 7.70,6.52 to 7.52,,,,,,,
"Cc1nc(N(C)C(=O)Cc2ccc(-c3ccccn3)cc2)sc1[S@](C)(=N)=O (single isomer, unassigned) [Example 7c(+), (+)-N-Methyl-N-(4-methyl-5-(S-methylsulfonimidoyl)thiazol-2-yl)-2-(4-(pyridin-2-yl)phenyl)acetamide]",6.12 to 6.52,6.12 to 6.52,5.82 to 6.30,,,,> 10,no or significantly reduced carbonic anhydrase inhibition,31200,5700
"Cc1nc(N(C)C(=O)Cc2ccc(-c3cc(F)ccc3F)cc2)sc1S(=N)(=O)C1CC1 (stereo not shown) [Example 7a, N-[5-(Cyclopropylsulfonimidoyl)-4-methyl-thiazol-2-yl]-2-[4-(2,5-difluorophenyl)phenyl]-N-methyl-acetamide]",7.00 to 7.52,7.00 to 7.52,6.30 to 7.30,,,,,,,
